Data reported in patent publication US12649750B2, “Macrocyclic compounds, compositions, and methods of using thereof” (Sionna Therapeutics Inc., priority 2022, dated 2026).

Assays:
[1] = target: T1, NBD1 (Homo sapiens, UniProt P13569); assay: Aggregation analysis using differential static light scattering (DSLS), thermal stability of NBD1 (ΔTagg); format: binding; settings: ΔTagg versus DMSO control, NBD1 0.2 mg/ml
T1 construct: Purified recombinant NBD1 was produced using previously described methods; made in house
T1 sequence (P13569 423-646 limits assumed): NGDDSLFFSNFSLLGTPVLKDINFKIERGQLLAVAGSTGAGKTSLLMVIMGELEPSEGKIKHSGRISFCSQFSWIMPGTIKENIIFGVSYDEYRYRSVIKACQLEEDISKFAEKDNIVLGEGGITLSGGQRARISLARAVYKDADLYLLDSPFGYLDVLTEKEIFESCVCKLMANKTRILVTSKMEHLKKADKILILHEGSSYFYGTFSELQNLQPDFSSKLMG
Outline: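 Differential static light scattering read from 25° C. to 70° C. every 0.5° C., ramp 1° C./min, on recombinant NBD1 (0.2 mg/ml; Tris/NaCl/MgCl2 buffer with 2 mM ATP, 2 mM DTT, pH 7.6, 1% glycerol) plus compound. Reported ΔTagg subtracts averaged DMSO Tagg from inflection-point Tagg; categories A ≤5, B >5-10, C >10-25° C.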

[2] = target: T2, CFTR (Homo sapiens, UniProt P13569, DEL508-508); assay: TECC24 AUC fold over DMSO @10 μM, CFTR-mediated transepithelial chloride transport in CF-HBE cells; format: cell-based; settings: test agent AUC divided by DMSO vehicle AUC, primary CF-HBE cells, ΔF508 homozygous donor, 48 hours incubation
T2 construct: Primary human bronchial epithelial cells from a ΔF508 homozygous CF donor; host or cells: primary human bronchial epithelial cells (CF-HBE), ΔF508 homozygous donor
T2 sequence (P13569 with tags, fused parts or gaps DEL508-508): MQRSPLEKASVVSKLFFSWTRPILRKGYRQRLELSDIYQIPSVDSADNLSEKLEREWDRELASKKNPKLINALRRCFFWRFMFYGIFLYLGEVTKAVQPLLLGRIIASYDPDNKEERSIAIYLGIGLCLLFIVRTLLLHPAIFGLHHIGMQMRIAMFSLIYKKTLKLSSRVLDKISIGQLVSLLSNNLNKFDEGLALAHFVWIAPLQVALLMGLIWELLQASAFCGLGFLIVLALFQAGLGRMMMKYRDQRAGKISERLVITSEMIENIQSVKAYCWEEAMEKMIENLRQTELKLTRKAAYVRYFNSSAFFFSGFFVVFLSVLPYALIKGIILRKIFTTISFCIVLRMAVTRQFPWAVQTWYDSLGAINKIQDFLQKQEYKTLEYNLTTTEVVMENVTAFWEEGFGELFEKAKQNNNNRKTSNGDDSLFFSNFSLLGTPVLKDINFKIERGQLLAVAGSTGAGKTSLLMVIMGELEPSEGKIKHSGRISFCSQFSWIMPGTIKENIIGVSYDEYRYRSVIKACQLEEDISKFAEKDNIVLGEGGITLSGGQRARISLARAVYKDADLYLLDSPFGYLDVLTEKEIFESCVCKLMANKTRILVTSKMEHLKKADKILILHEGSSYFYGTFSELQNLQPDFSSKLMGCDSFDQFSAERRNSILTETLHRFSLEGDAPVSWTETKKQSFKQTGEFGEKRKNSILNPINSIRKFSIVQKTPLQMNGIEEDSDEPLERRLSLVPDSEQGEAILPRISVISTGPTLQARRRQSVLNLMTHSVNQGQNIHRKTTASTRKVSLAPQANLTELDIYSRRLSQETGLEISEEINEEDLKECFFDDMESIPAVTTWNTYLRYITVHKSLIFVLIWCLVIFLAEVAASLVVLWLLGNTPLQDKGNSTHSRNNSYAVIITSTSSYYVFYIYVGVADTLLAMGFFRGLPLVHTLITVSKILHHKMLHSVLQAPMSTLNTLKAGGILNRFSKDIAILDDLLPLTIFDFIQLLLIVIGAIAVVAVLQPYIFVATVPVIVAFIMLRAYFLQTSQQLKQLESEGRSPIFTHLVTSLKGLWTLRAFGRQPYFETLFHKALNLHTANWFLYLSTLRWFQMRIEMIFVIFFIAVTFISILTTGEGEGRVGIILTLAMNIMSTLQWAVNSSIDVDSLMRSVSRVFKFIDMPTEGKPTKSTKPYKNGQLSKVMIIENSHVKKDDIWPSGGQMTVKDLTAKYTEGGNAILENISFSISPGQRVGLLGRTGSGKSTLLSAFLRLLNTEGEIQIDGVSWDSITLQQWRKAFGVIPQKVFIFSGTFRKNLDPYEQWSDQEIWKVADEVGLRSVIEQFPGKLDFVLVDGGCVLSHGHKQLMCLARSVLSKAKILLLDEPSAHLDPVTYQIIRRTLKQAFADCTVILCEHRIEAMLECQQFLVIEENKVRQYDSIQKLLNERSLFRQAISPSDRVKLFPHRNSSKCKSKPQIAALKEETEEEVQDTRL
Outline: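 Primary ΔF508-homozygous CF bronchial epithelial cells on inserts were incubated 48 h at 36.5 °C with compound in IL-13-containing medium. VT and TEER were then recorded in current-clamp mode (pH 7.4 HEPES bath) with benzamil 10 μM, forskolin 10 μM, then CFTR inhibitor-172 20 μM. The IEQ AUC between forskolin and inhibitor was divided by vehicle AUC.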

SMILES | DSLS 3D (100 μM ΔT) [1] | TECC (AUC, 10 μM) [2]
CC1(C)CCCC(c2cccc(CCC(=O)O)c2)n2ccc(n2)-c2cccc(c2)Oc2c(F)cc3[nH]ccc3c2CCS(=O)(=O)C1 (stereo not drawn) [Compound 23, 3-[3-(22-Fluoro-10,10-dimethyl-12,12-dioxo-24-oxa-12lambda6-thia-5,19,30-triazapentacyclo[23.3.1.12,5.015,23.016,20]triaconta-1(29),2(30),3,15,17,20,22,25,27-nonaen-6-yl)phenyl]propanoic Acid] | C (a value greater than 10 °C and less than or equal to 25 °C is marked “C”) | B (a value between 12-20 is marked “B”)
CC(Cc1cccc(C2CCCC(C)(C)CS(=O)(=O)CCc3c(c(F)cc4[nH]ccc34)Oc3cccc(c3)-c3ccn2n3)c1)C(=O)O (stereo not drawn) [Compound 25, 3-[3-(22-Fluoro-10,10-dimethyl-12,12-dioxo-24-oxa-12lambda6-thia-5,19,30-triazapentacyclo[23.3.1.12,5.015,23.016,20]triaconta-1(29),2(30),3,15,17,20,22,25,27-nonaen-6-yl)phenyl]-2-methyl-propanoic Acid] | C (a value greater than 10 °C and less than or equal to 25 °C is marked “C”) | A (a TECC value less than 12 is marked “A”)
CC1(C)CCCC(c2cccc(CC(=O)O)c2)n2ccc(n2)-c2cc(ccc2F)Oc2c(F)cc3[nH]ccc3c2CCS(=O)(=O)C1 (stereo not drawn) [Compound 26, 2-[3-(22,28-Difluoro-10,10-dimethyl-12,12-dioxo-24-oxa-12lambda6-thia-5,19,30-triazapentacyclo[23.3.1.12,5.015,23.016,20]triaconta-1(29),2(30),3,15,17,20,22,25,27-nonaen-6-yl)phenyl]acetic Acid] | C (a value greater than 10 °C and less than or equal to 25 °C is marked “C”) | C (a value between 20 and 80 is marked “C”)
CC1(c2cccc(CCC(=O)O)c2)CCCCCS(=O)(=O)CCc2c(c(F)cc3[nH]ccc23)Oc2ccc(F)c(c2)-c2ncc1[nH]2 (stereo not drawn) [Compound 37, 3-[3-(22,28-Difluoro-6-methyl-12,12-dioxo-24-oxa-12λ6-thia-3,19,30-triazapentacyclo[23.3.1.12,5.015,23.016,20]triaconta-1(29),2,4,15,17,20,22,25,27-nonaen-6-yl)phenyl]propanoic Acid] | C (a value greater than 10 °C and less than or equal to 25 °C is marked “C”) | A (a TECC value less than 12 is marked “A”)
O=C(O)CCc1cccc(C2CCS(=O)(=O)CCc3cn(nn3)Cc3c(c(F)cc4[nH]ccc34)Oc3ccc(F)c(c3)-c3ncc2[nH]3)c1F (stereo not drawn) [Compound 40, 3-[3-(24,30-Difluoro-9,9-dioxo-26-oxa-9lambda6-thia-3,13,14,15,21,33-hexazahexacyclo[25.3.1.12,5.112,15.017,25.018,22]tritriaconta-1(31),2,4,12(32),13,17,19,22,24,27,29-undecaen-6-yl)-2-fluoro-phenyl]propanoic Acid] | C (a value greater than 10 °C and less than or equal to 25 °C is marked “C”) | B (a value between 12-20 is marked “B”)
O=S1(=O)CCc2cn(nn2)Cc2c(c(F)cc3[nH]ccc23)Oc2ccc(F)c(c2)-c2ncc([nH]2)C(c2ccccc2F)CC1 (stereo not drawn) [Compound 41, 24,30-Difluoro-6-(2-fluorophenyl)-26-oxa-9λ6-thia-3,13,14,15,21,33-hexazahexacyclo[25.3.1.12,5.112,15.017,25.018,22]tritriaconta-1(31),2,4,12(32),13,17,19,22,24,27,29-undecaene 9,9-dioxide] | C (a value greater than 10 °C and less than or equal to 25 °C is marked “C”) | A (a TECC value less than 12 is marked “A”)
CC1CCC(C)(c2cccc(CCC(=O)O)c2)c2cnc([nH]2)-c2cc(ccc2F)Oc2c(F)cc3[nH]ccc3c2CCS(=O)(=O)CC1 (stereo not drawn) [Compound 42, 3-[3-(22,28-Difluoro-6,9-dimethyl-12,12-dioxo-24-oxa-12lambda6-thia-3,19,30-triazapentacyclo[23.3.1.12,5.015,23.016,20]triaconta-1(29),2,4,15,17,20,22,25,27-nonaen-6-yl)phenyl]propanoic Acid] | C (a value greater than 10 °C and less than or equal to 25 °C is marked “C”) | B (a value between 12-20 is marked “B”)
CC1(C)CCCC(C)(c2cccc(CCC(=O)O)c2)c2coc(n2)-c2cc(ccc2F)Oc2c(F)cc3[nH]ccc3c2CCS(=O)(=O)C1 (stereo not drawn) [Compound 44, 3-[3-(22,28-Difluoro-6,10,10-trimethyl-12,12-dioxo-3,24-dioxa-12lambda6-thia-19,30-diazapentacyclo[23.3.1.12,5.015,23.016,20]triaconta-1(29),2(30),4,15,17,20,22,25,27-nonaen-6-yl)phenyl]propanoic Acid] | C (a value greater than 10 °C and less than or equal to 25 °C is marked “C”) | A (a TECC value less than 12 is marked “A”)
CC1(C)CSCc2c(c(F)cc3[nH]ccc23)Oc2ccc(F)c(c2)-c2nc(c[nH]2)C(C)(c2cccc(CCC(=O)O)c2)CCCO1 (stereo not drawn) [Compound 46, 3-[3-(22,28-difluoro-6,11,11-trimethyl-10,24-dioxa-13-thia-3,19,30-triazapentacyclo[23.3.1.12,5.015,23.016,20]triaconta-1(29),2(30),4,15,17,20,22,25,27-nonaen-6-yl)phenyl]propanoic Acid] | C (a value greater than 10 °C and less than or equal to 25 °C is marked “C”) | C (a value between 20 and 80 is marked “C”)
CC1(C)C[S+]([O-])Cc2c(c(F)cc3[nH]ccc23)Oc2ccc(F)c(c2)-c2nc(c[nH]2)C(C)(c2cccc(CCC(=O)O)c2)CCCO1 (stereo not drawn) [Compound 47, 3-[3-(22,28-Difluoro-6,11,11-trimethyl-13-oxo-10,24-dioxa-13M-thia-3,19,30-triazapentacyclo[23.3.1.12,5.015,23.016,20]triaconta-1(29),2,4,15,17,20,22,25,27-nonaen-6-yl)phenyl]propanoic Acid] | C (a value greater than 10 °C and less than or equal to 25 °C is marked “C”) | B (a value between 12-20 is marked “B”)
CC1(C)CS(=O)(=O)Cc2c(c(F)cc3[nH]ccc23)Oc2ccc(F)c(c2)-c2ncc([nH]2)C(C)(c2cccc(CCC(=O)O)c2)CCCO1 (stereo not drawn) [Compound 48, 3-[3-(22,28-Difluoro-6,11,11-trimethyl-13,13-dioxo-10,24-dioxa-13λ6-thia-3,19,30-triazapentacyclo[23.3.1.12,5.015,23.016,20]triaconta-1(29),2,4,15,17,20,22,25,27-nonaen-6-yl)phenyl]propanoic Acid] | C (a value greater than 10 °C and less than or equal to 25 °C is marked “C”) | C (a value between 20 and 80 is marked “C”)
CC1(C)CCCC(C)(c2cccc(CCC(=O)O)c2)c2csc(n2)-c2cccc(c2)Oc2c(F)cc3[nH]ccc3c2CCS(=O)(=O)C1 (stereo not drawn) [Compound 50, 3-[3-(22-Fluoro-6,10,10-trimethyl-12,12-dioxo-24-oxa-3,12λ6-dithia-19,30-diazapentacyclo[23.3.1.12,5.015,23.016,20]triaconta-1(29),2(30),4,15,17,20,22,25,27-nonaen-6-yl)phenyl]propanoic Acid] | C (a value greater than 10 °C and less than or equal to 25 °C is marked “C”) | C (a value between 20 and 80 is marked “C”)
CC1(C)CCCC(C)(c2cccc(CCC(=O)O)c2)c2coc(n2)-c2cccc(c2)Oc2c(F)cc3[nH]ccc3c2CCS(=O)(=O)C1 (stereo not drawn) [Compound 51, 3-[3-(22-Fluoro-6,10,10-trimethyl-12,12-dioxo-3,24-dioxa-12λ6-thia-19,30-diazapentacyclo[23.3.1.12,5.015,23.016,20]triaconta-1(29),2(30),4,15,17,20,22,25,27-nonaen-6-yl)phenyl]propanoic Acid] | C (a value greater than 10 °C and less than or equal to 25 °C is marked “C”) | A (a TECC value less than 12 is marked “A”)
CC(CC(=O)O)c1cccc(C2CCCC(C)(C)CS(=O)(=O)CCc3c(c(F)cc4[nH]ccc34)Oc3cccc(c3)-c3ccnn32)c1 (stereo not drawn) [Compound 53, 3-[3-(23-Fluoro-11,11-dimethyl-13,13-dioxo-25-oxa-13lambda6-thia-5,6,20-triazapentacyclo[24.3.1.02,6.016,24.017,21]triaconta-1(30),2,4,16,18,21,23,26,28-nonaen-7-yl)phenyl]butanoic acid] | A (an ΔTagg value less than or equal to 5 °C is marked “A”) | A (a TECC value less than 12 is marked “A”)
CC1(C)CCCC(c2cccc(CCC(=O)O)c2)n2ccc(n2)-c2cc(ccc2F)Oc2c(F)cc3[nH]cnc3c2CCS(=O)(=O)C1 (stereo not drawn) [Compound 57, 3-[3-(22,28-Difluoro-10,10-dimethyl-12,12-dioxo-24-oxa-12λ6-thia-5,17,19,30-tetrazapentacyclo[23.3.1.12,5.015,23.016,20]triaconta-1(29),2(30),3,15,17,20,22,25,27-nonaen-6-yl)phenyl]propanoic Acid] | B (a value above 5 °C and less than or equal to 10 °C is marked “B”) | C (a value between 20 and 80 is marked “C”)
